One series has as its system human leukocytes. Put plainly: Cytotoxic assay on human leukocytes (viability dye, flow cytometry). Type of series: cell-based. As to conditions: 2 h, various concentrations. From the text: (§1) Human leukocytes were provided by the « Banco de Sangre del Hospital Regional del IMSS » and the Centro Estatal de la Transfusión Sanguínea in Cuernavaca, Morelos, Mexico. Institutional committees approved the acquisition and isolation of human peripheral blood leukocytes. Human leukocytes and erythrocytes were obtained as previously described. Mouse bone marrow cells (MBMCs) and erythrocytes were obtained from C57BL/6 or Balb/c mice. Mouse epithelial cells were isolated from C57Bl/6 mice, and human epithelial cells were recovered from surgery residues. In brief, intestinal tissues were minced and digested in 450-U/mL collagenase I, 125-U/mL collagenase XI, 60-U/mL hyaluronidase, and 60-U/mL DNAse for 1 hour before gradient density centrifugation on Histopaque-1083 (Sigma-Aldrich, St. Louis, MO). […]
(§2) 5.10^5 mouse or human leukocytes or primary epithelial cells, A549 or Jurkat E6-1 cells, were incubated in 100 µl RPMI or DMEM containing 0.5% BSA and […] with the peptides at different concentrations for 2 hours at 37°C, 5% CO2. […] Viability of leukocytes and Jurkat cells was determined by adding a viability dye (eFluor 780) and counted by FacsCanto flow cytometry with a predetermined number of beads (Polybead, Carboxylate Microspheres, Polysciences, Inc., Le Perray-en-Yvelines, France) added to the samples. […] Data were analyzed with FlowJo.
(A flow cytometer gives signals particle by particle.)

The subject of another series is C57BL/6 mice. Kind of series: Thioglycolate-induced peritoneal inflammation (noninfectious peritonitis). It is filed as in vivo, mouse. Particulars: thioglycolate 3% i.p., 15 µg/injection i.p. at 14, 19 and 24 h, flow cytometry. The procedure: C57BL/6 mice were injected intraperitoneally with 1 mL 3% (wt/vol) thioglycolate (Sigma-Aldrich, l'Ile d'Abeau, France) dissolved in sterile NaCl and then 14, 19, and 24 hours later injected i.p. with DRS-DA2N or DRS-DA2NEQ (15 µg/injection). NaCl was used as a negative control. Twelve hours after the last injection, mice were killed, and 3 mL of cold PBS was injected i.p. to harvest peritoneal cells, which were then stained with anti-mouse Ly6G-PE, anti-mouse NK1.1-PE, anti-mouse CD11b-PerCP, and anti-mouse F4/80-APC (BD Biosciences, Rungis, France). Blood and bone marrow were also collected and stained with the same antibodies. Cells and beads were then counted by FACSCalibur flow cytometry, and data were analyzed with FlowJo. Cells being CD11b^hiLy6G^−NK1.1^− are considered to be monocytes (Mo), CD11b^hiLy6G^−NK1.1^− F4/80^+ macrophages (MΦ), and CD11b^hiLy6G^+NK1.1^− neutrophils (PMN).

A further series deals with Jurkat E6-1 cells. Put plainly: Apoptosis/necrosis assay (annexin V / eFluor 780). Type of series: cell-based. As to conditions: Jurkat E6-1, 5 µM, 2 hours. The procedure: Induction of apoptosis or necrosis by the peptides was tested by incubating 5.10^5 Jurkat E6-1 cells in 200 µl RPMI containing 10% FBS and […] with the peptides at 5 µM for 2 hours at 37°C, 5% CO2. A positive control was obtained by exposing the cells to UV light for 10 min (1 mJ/cm^2, Stratagene UV Stratalinker 2400), before incubating them for 4 hours at 37°C, 5% CO2, RPMI 10% FBS. Cells were then washed, centrifuged, resuspended, and incubated 30 min at 4°C in the dark with Viability dye 780 (BioLegend). After washing the cells, Annexin-V-FITC in annexin-binding buffer was added, and the cells were incubated for 15 minutes at room temperature in the dark. The cells were fixed with PFA at a final dilution of 2% before being analyzed by FACSCanto flow cytometry.

Series [1] deals with Gram-positive and Gram-negative strains. Kind of series: Antibacterial properties on a series of strains. It is filed as cell-based. How it is done:
(§3) The minimum inhibitory concentration (MIC) was determined by a liquid test in 96-well microplates as previously described. 100 µL of the sample to be tested was distributed in triplicate to obtain a range of final concentrations from 100 to 0.2 µM in the wells. 90 µL of bacterial suspension (5 × 10^5 CFU/mL for Gram-negative bacteria and 5 × 10^5 CFU/mL for Gram-positive strains in Mueller–Hinton broth) were added to each well [14]. The microtiter plates were incubated at 37°C overnight. The optical density of the wells was measured at […], and the results were interpreted by calculating the percentage of growth in each well according to the formula: % growth = (OD600 well − OD600 T0)/(OD600 of T100 − OD600 T0) ∗ 100, where OD600 T100 = DO600 growth control (bacterial suspension without the test sample, 100% growth), OD600 T0 = OD600 of sterility control (culture medium + […] 10 µL formaldehyde, 0% growth) well, and OD600 = OD600 of the well which was desired to calculate the percentage of growth (+ bacterial suspension test sample). MIC is the minimum concentration of the peptide that inhibits bacterial growth after incubation at 37°C for 20 hours.
The minimum bactericidal concentration (MBC) is defined as the minimum concentration of the peptide killing 99.9% of bacteria after incubation at 37°C for 20 hours. […]

Series [2] in a line: Circular dichroism, percentage of helicity. Particulars: POPE: POPG (75 : 25) LUVs, peptide/lipid 1/50, 10 mM Tris pH 7.4. Type of series: physicochemical. How it is done: The CD spectra of the peptides were recorded as previously described. Measurements were carried out in 10 mM Tris buffer at pH 7.4 and in the presence of POPC, POPG, and POPG-POPC (25 : 75) LUVs or POPG-POPE (25 : 75) LUVS to mimic E. coli inner membrane composition at a peptide/lipid molar ratio of 1/50. Dichroic spectra were corrected by subtracting the background obtained for each peptide-free solution. An analysis of CD spectra was conducted after smoothing, and conversion to molar ellipticity was calculated as follows: […], where θobs is the observed ellipticity, n is the number of bonds, c is the peptide concentration in mol. L^−1, and l is the path length in cm.

Another series concerns mouse leukocytes. Kind of series: Cytotoxic assay on mouse leukocytes (viability dye, flow cytometry). Type of series: cell-based. As to conditions: 2 h, various concentrations.
From the text: as §1, §2

The test system of series [3] is S. aureus ATCC 700699 (MecA+). Put plainly: Antibacterial activity on skin multiresistant bacteria. Type of series: cell-based. As to conditions: Staphylococcus aureus, ATCC700699. How it is done:
as §3

Series [4] relates to S. epidermidis ST20140436 (MecA+). The description is as above. Type of series: cell-based. As to conditions: Staphylococcus epidermidis. How it is done: as §3
The test system of series [5] is Acinetobacter johnsonii (carbapenemase). The description is as above. It is filed as cell-based. How it is done:
as §3

Series [6] has as its system Propionibacterium acnes (clinical isolate), first listed. The series is described as above. Type of series: cell-based. Particulars: Cutibacterium acnes, first listed (r7). How it is done:
as §3

The test system of series [7] is Propionibacterium acnes (clinical isolate), second listed. Described as above. Particulars: Cutibacterium acnes, second listed (r8). It is filed as cell-based. The procedure:
as §3

For a further series, the system named is E. coli ATCC8739. Put plainly: Time-kill assay. It is filed as cell-based. As to conditions: E. coli ATCC8739, peptide at its MIC concentration, 37°C, CFU counting. The procedure:
Time-killing experiments were achieved according to [18, 19] with minor modifications. The peptide's concentration was 1 × MIC and 2 × MIC. At the time points of 15, 30, 45, and 60 min and after homogenization, suspensions were diluted in 10 mM sodium phosphate buffer (pH 6.8) and spread onto MH agar plates. After overnight incubation at room temperature, CFUs were counted.

The next series in a line: ANTS/DPX leakage assay. Particulars: POPE/POPG (75 : 25) LUVs, 0.5 mM lipid, from Figure 10(c). How it is done: The lipids 1-palmitoyl-2-oleoyl-sn-glycero-3-phospho-(1′-rac-glycerol) (POPG) and 1-palmitoyl-2-oleoyl-sn-glycero-3-phosphoethanolamine (POPE) were obtained from Avanti Polar Lipids, Inc., and used without further purification. Desired mixtures of phospholipids were first dried in glass tubes under nitrogen and then maintained under reduced pressure for at least 60 min. Lipid films were subsequently hydrated in PBS to yield a lipid concentration. The resulting dispersions were subjected to 5 freeze-thaw cycles by alternately placing the sample vial in a liquid nitrogen bath and a warm water bath (40°C). […]
The vesicles of POPE/POPG (75/25) at 25 mM concentration were obtained as previously described and suspended in a solution of 12.5 mM ANTS and 45 mM DPX in 10 mM HEPES. […] Final lipid concentration was measured by the method of Rouser.
To measure the leakage of DPX, the vesicles were diluted to a concentration of 0.5 mM lipid. […] ANTS fluorescence was monitored using a fluorimeter (excitation = 350 nm; emission = 530 nm) or a fluorescence plate reader (excitation filter wavelength/bandpass = 340/11; emission 530/25.
Fractional leakage was calculated as (Fsample − Finitial)/(Flysed−Finitial).

In brackets after ≈: the same amount, converted by molar mass. Peptide text beside a SMILES is read from it. A value given as a limit tells only on which side of the number the result lay.

In the case of `CSCC[C@H](NC(=O)[C@H](C)NC(=O)[C@H](C)NC(=O)[C@H](CCCCN)NC(=O)[C@@H](NC(=O)[C@H](CC(C)C)NC(=O)[C@@H](NC(=O)[C@H](CC(N)=O)NC(=O)CNC(=O)[C@@H](N)CCCCN)C(C)C)C(C)C)C(=O)N[C@@H](CC(C)C)C(=O)N[C@H](C(=O)N[C@@H](CCCCN)C(=O)N[C@H](C(=O)N[C@@H](CC(C)C)C(=O)N[C@@H](C)C(=O)N[C@@H](CCCCN)C(=O)N[C@@H](CC(N)=O)C(=O)N[C@@H](CCCCN)C(=O)NCC(=O)N[C@H](C(=O)N[C@@H](CCC(N)=O)C(=O)N[C@@H](CC(N)=O)C(=O)N[C@@H](C)C(=O)N[C@@H](CC(N)=O)C(=O)N[C@@H](C)C(=O)N[C@@H](CC(C)C)C(=O)N[C@H](C(=O)N[C@@H](Cc1c[nH]c2ccccc12)C(=O)O)[C@@H](C)O)C(C)C)C(C)C)[C@@H](C)O` [Scr] (H-KGNVLVKAAMLTKVLAKNKGVQNANALTW-OH; N-terminus and C-terminus assumed), the “induction of death of leukocyte populations” value in the series on human leukocytes was “did not induce the death”. For the same compound, the “egress of inflammatory cells from the bone marrow and increase in blood after induction of peritonitis (systemic effect)” value in the series on C57BL/6 mice is “conserved”. Further, in the series with Jurkat E6-1 cells, the cell death is on record as less than 4% and the “cells alive (A−V−)” value is listed as “more than 96%”. Moreover, the bacterial activity result in series [1] is given as “did not exhibit any bacterial activity”. The “percentage of helicity (CD)” value in series [2] is “remained unstructured”. Besides, in the series on mouse leukocytes, the “induction of death of leukocyte populations” value is reported as “did not induce the death”.
For `CC1(C)S[C@@H]2[C@H](NC(=O)[C@H](N)c3ccc(O)cc3)C(=O)N2[C@H]1C(=O)O` [amoxicillin], the MIC in [3] and in [4] was greater than 43.8 µM throughout.
For the compound `CC(C)(O/N=C(\C(=O)N[C@@H]1C(=O)N2C(C(=O)[O-])=C(C[n+]3ccccc3)CS[C@H]12)c1csc(N)n1)C(=O)O` [ceftazidime], the MIC (in general, the least concentration at which growth counts as inhibited) in [5] is greater than 29.3 µM.
As to `C[C@H]1c2cccc(O)c2C(=O)C2=C(O)[C@]3(O)C(=O)C(C(N)=O)=C(O)[C@@H](N(C)C)[C@@H]3[C@@H](O)[C@@H]21` [doxycycline], the results for the MIC in series [6] and in series [7] were 0.13 µM (≈ 0.0578 µg/mL) and 0.27 µM (≈ 0.12 µg/mL), respectively.
In the case of omiganan, the “incubation time after which all the bacteria were killed” value with E. coli ATCC8739 is “needed a much longer time to be active”. Moreover, the “LIC50 (peptide concentration required to induce 50% leakage)” value in the series “ANTS/DPX leakage assay” is given as “No leakage”.
